These results are taken from publication PMC12391391, “The balance between B55α and Greatwall expression levels predicts sensitivity to Greatwall inhibition in cancer cells” (Nature Communications, 2025).

Usually solubility stands for the concentration that dissolves in the medium under given conditions.

Data set [1] has as its target T1, Greatwall kinase (GWL, MASTL) (Homo sapiens, UniProt Q96GX5, K72M).
T1 construct: full-length
T1 sequence (Q96GX5 1-879 K72M): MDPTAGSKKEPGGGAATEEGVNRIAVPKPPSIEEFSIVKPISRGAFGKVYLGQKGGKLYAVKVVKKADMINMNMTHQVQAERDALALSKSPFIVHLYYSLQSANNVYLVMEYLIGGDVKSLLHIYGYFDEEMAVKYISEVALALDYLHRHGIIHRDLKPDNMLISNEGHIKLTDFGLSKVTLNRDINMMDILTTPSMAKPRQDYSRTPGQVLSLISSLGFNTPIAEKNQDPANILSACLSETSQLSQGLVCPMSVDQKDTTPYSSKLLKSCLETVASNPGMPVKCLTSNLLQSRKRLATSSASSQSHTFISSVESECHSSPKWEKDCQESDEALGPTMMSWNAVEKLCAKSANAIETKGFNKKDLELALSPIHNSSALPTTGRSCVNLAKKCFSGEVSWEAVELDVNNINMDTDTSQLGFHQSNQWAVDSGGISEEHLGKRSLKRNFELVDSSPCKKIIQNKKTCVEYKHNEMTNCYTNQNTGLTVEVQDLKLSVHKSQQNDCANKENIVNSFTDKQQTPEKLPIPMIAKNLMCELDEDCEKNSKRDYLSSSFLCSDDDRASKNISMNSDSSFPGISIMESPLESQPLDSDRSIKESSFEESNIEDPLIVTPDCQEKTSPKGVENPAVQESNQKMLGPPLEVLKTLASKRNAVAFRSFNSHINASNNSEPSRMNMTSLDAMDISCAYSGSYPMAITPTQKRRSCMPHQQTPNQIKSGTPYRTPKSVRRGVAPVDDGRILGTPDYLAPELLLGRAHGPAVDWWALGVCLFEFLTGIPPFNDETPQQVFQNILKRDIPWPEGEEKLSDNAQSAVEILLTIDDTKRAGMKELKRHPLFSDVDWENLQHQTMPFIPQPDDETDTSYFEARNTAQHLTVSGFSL
In words: HTRF kinase assay with purified full-length GWL (K72M) and ENSA. Format: biochemical. In general terms: In TR-FRET formats the signal depends on donor and acceptor labels being close together.

The target in data set [2] is T2, hERG (Homo sapiens, UniProt Q12809).
T2 construct: gene KCNH2
T2 sequence (Q12809 whole entry): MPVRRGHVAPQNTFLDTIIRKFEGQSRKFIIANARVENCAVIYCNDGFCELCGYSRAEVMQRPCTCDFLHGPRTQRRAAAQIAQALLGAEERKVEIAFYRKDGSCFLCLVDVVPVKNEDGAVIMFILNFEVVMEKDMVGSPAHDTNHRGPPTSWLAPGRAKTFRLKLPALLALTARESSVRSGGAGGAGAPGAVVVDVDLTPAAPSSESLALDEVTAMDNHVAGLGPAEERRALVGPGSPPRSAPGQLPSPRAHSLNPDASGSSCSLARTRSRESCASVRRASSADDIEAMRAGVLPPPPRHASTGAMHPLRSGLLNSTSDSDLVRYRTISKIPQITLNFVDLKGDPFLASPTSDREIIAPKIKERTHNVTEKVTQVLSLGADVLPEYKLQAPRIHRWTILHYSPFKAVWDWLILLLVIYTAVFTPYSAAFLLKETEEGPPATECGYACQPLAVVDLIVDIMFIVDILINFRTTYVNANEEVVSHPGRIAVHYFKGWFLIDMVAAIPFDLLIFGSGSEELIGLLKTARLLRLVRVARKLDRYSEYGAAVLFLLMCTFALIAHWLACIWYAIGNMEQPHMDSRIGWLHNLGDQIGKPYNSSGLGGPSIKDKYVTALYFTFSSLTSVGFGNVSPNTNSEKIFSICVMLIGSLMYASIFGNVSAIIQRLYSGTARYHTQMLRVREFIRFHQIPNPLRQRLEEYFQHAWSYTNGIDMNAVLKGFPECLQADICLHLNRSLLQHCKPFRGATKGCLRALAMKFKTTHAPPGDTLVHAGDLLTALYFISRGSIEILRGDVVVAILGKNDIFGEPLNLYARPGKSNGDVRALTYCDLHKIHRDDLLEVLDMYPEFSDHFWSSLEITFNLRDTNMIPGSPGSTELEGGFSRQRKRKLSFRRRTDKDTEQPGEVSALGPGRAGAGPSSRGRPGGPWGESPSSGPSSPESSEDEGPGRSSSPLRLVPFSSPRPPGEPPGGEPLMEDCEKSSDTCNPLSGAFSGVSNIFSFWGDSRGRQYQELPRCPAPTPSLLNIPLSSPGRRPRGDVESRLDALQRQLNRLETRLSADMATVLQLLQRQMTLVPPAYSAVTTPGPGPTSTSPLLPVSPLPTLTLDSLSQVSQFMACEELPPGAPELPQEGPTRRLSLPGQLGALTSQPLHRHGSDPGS
As to the kind of experiment: cell-based. Details: hERG channel inhibition. The source says:
(§1) We selected compound 1 as the lead exemplar of cluster 3 and leveraged it as a foundation for subsequent drug development (Fig. 1a). Structure-activity relationship studies and pharmacokinetic profiling produced several derivative molecules, of which compound 21 provided the best combination of outstanding inhibitory potential, low clearance in mouse microsomes and acceptable solubility (Fig. 1a–c and Supplementary Tables 1–4). […] This assessment was supported by structural modelling of the interaction between compound 21 and the active site of GWL (Fig. 1d). In further support of its GWL-targeting properties, compound 21 diminished the phosphorylation of the canonical GWL substrate ENSA(S67) in Xenopus laevis cytostatic factor (CSF) egg extract (Supplementary Fig. 2). Having satisfied the criteria of prospective GWL inhibitor, the racemic compound 21 was registered as UOS-00054604 and, for the remainder of the manuscript, is referred to as C-604.

The nature of data set [3]: in vitro. The arrangement: intrinsic clearance in human microsomes. Conditions: liver microsomes, human liver microsomes.
Text: as §1
Background: Liver microsomes are a subcellular fraction often used to study metabolism.

The target in data set [4] is T3, CDK1/cyclinB (Homo sapiens, UniProt P06493). In words: biochemical. Conditions: read-out: off-target pIC50 (converted). The arrangement: CDK1/cyclin B and off-target kinase inhibition assay.
T3 sequence (P06493 whole entry): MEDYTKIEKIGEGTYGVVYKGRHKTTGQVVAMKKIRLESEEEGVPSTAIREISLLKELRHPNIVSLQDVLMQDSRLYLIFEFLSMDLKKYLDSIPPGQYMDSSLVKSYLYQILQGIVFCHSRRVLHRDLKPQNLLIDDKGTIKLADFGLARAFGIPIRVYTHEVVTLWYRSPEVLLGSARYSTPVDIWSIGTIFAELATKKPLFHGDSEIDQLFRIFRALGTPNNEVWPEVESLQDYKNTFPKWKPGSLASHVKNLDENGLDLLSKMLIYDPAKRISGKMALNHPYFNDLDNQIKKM
T3 sequence (P14635 whole entry partner): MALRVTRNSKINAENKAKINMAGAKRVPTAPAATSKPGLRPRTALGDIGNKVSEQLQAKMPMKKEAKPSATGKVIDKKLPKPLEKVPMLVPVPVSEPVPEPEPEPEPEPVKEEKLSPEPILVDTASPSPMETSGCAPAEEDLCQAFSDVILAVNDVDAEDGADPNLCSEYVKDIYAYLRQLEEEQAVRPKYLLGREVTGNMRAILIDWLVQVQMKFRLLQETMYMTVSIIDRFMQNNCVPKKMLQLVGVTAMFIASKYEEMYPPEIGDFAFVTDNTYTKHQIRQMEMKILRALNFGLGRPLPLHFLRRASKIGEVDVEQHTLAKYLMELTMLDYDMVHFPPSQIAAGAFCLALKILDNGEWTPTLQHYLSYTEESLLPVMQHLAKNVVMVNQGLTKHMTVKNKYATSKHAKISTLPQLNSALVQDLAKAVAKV
Data set [5] in a line: physchem. The arrangement: aqueous solubility at pH 7.0. The conditions noted are these: pH 7.0; buffer pH 7.0; aqueous buffer pH 7.0.
Text: as §1

Data set [6] can be described thus: in vitro. The arrangement: intrinsic clearance in mouse microsomes. Conditions: liver microsomes; mouse liver microsomes.
Text: as §1

Data set [7] addresses T1, Greatwall kinase (GWL, MASTL). In words: biochemical. Details: HTRF kinase assay with full-length GWL and ENSA, inhibition. The source says: To discover small molecules interfering with GWL activity, we screened a kinase-focused subset of the AstraZeneca compound collection in the full-length hyperactive GWL (K72M) homogeneous time-resolved fluorescence (HTRF) assay. The kinase screening collection comprised around 40,000 samples of interest, augmented by exemplars of kinase hinge-binding motifs, literature-reported kinase actives and screening catalogue purchases (mean MW ≈ 360, mean clogP ≈ 2.8), aiming to achieve as wide a coverage of the kinome as possible. Initially, we selected potential active molecules with a z-score ≤ −5 (equivalent to approximately 25% inhibition or better) and performed compound clustering, followed by near-neighbour testing and determination of relevant median inhibitory concentration (IC50) values. Subsequent re-clustering based on GWL inhibitory potency, Cdk1 selectivity, broad kinome selectivity and additional known factors influencing drug developability, such as molecular weight, lipophilicity and the number of hydrogen donors and acceptors, generated six prioritised compound clusters (Supplementary Fig. 1a, b). […] Despite the favourable kinase selectivity profile of cluster 5, we considered this series less attractive due to the limited number of compounds (n = 5) and suboptimal molecular properties for a hit, such as higher lipophilicity, lower binding efficiency (as indicated by ligand-lipophilic efficiency, LLE) and greater molecular weight (Supplementary Fig. 1a, b). […] We selected compound 1 as the lead exemplar of cluster 3 and leveraged it as a foundation for subsequent drug development (Fig. 1a). Structure-activity relationship studies and pharmacokinetic profiling produced several derivative molecules, of which compound 21 provided the best combination of outstanding inhibitory potential, low clearance in mouse microsomes and acceptable solubility (Fig. 1a–c and Supplementary Tables 1–4). […] This assessment was supported by structural modelling of the interaction between compound 21 and the active site of GWL (Fig. 1d). In further support of its GWL-targeting properties, compound 21 diminished the phosphorylation of the canonical GWL substrate ENSA(S67) in Xenopus laevis cytostatic factor (CSF) egg extract (Supplementary Fig. 2). Having satisfied the criteria of prospective GWL inhibitor, the racemic compound 21 was registered as UOS-00054604 and, for the remainder of the manuscript, is referred to as C-604.  Fig. 1 Development and characterisation of the GWL kinase inhibitor C-604. a Chemical structure of the lead exemplar compound 21 and the general synthetic route towards the preparation of pyrrolopyrazine GWL inhibitors. (a) for 4a, (i) NaH, SEM-Cl, DMF, 0 °C, 4 h; (ii) Arnold’s reagent, CHCl3, 60 °C, 20 h; (iii) NaClO2, KH2PO4, NH2SO3H, 1,4-dioxane/water, 0 °C to rt, 2 h, 35% (three steps); for 4b, (i) hexamine, TFA, MW, 80 °C, 20 min; (ii) NaH, SEM-Cl, DMF, 0 °C to rt, 16 h; (iii) NaClO2, KH2PO4, NH2SO3H, 1,4-dioxane/water, 0 °C to rt, 1.5 h, 14% (three steps); (b) 2 M methylamine in THF, T3P, pyridine, EtOAc, 60 °C, 2-4 h, 89-97%; (c) 2-(pyrrolidin-1-yl)ethanol, CuI, L-proline, K2CO3, DMSO, 100 °C, 16 h, 48%; (d) TFA, DCM, rt, 16 h then ethylenediamine, DCM, rt, 3-6 h, 29-92%; (e) 1-methylpiperazine, CuI, L-proline, K2CO3, DMSO, 100 °C, 16 h, 77%; (f) boronate ester, Pd(dppf)Cl2 · DCM, 1,4-dioxane/water, MW, 120 °C, 30 min, 43-81%; (g) boronate ester, Pd(dppf)Cl2 · DCM, 1,4-dioxane/water, MW, 120 °C, 30 min, 56%; (h) amine, K2CO3, DMF, 95 °C, 1 h, 32-67%. b Chemical structure of the lead compound 21 (C-604). c Dose-dependent effect of compound 21 (C-604) on the in vitro GWL activity measured by an HTRF assay utilising purified full-length GWL (K72M) and ENSA. Per cent (%) inhibition was determined from fluorescence intensity values normalised to the signal measured in the control enzyme-free reaction. […]

The target in data set [8] is Syk (Homo sapiens, UniProt P43405). In words: biochemical. The conditions noted are these: read-out: off-target pIC50 (converted). Details: CDK1/cyclin B and off-target kinase inhibition assay.
In data set [9] the target is T3, CDK1/cyclinB. In words: biochemical. Details: CDK1/cyclin B and off-target kinase inhibition assay.

Molecules are shown by their SMILES. Read-outs that look alike come from different tables or passages of the source. Bounds are passed on as bounds.

Take `CNC(=O)c1c[nH]c2ncc(-c3ccc(OCCN4CC[C@H](c5ccccc5)C4)cc3)nc12` [21 (R), compound 21, R stereoisomer]: the IC50 in [1] was determined as 13.3 ± 6.4 nM.
The same measure, in the same setting: to `CNC(=O)c1c[nH]c2ncc(-c3ccc(OCCN4CC[C@@H](c5ccccc5)C4)cc3)nc12` [21 (S), compound 21, S stereoisomer] belongs 10.9 ± 2 nM.
Take `CNC(=O)c1c[nH]c2ncc(-c3cn(C)c4ccccc34)nc12` [compound 1, 1]: the IC50 was greater than 30000 nM in data set [2]; 3160 nM in [4]; 100 nM in data set [7] (read-out: K72MGWL HTRF pIC50 (converted)); 25.1 nM in [8]; 1480 nM in [9]. Further, the microsomal CLint turned out to be 147 µL/min/mg in [3] (read-out: Cl (human)), 45 µL/min/mg in data set [3] (read-out: hMic Clint) and 196 µL/min/mg in [6]. Moreover, in data set [5], the solubility came out at 15 µM.
In the case of `CNC(=O)c1c[nH]c2ncc(OCCN3CCCC3)nc12` [compound 6, 6], the IC50 in data set [7] worked out at 5880 nM.
On the same count and under the same terms, with `CNC(=O)c1c[nH]c2ncc(N3CCN(C)CC3)nc12` [compound 7, 7] the figure was 4240 nM.
The same measure, in the same setting: with `CNC(=O)c1c[nH]c2ncc(-c3ccc(C#N)cc3)nc12` [compound 8, 8] the figure was 339 nM; with `CNC(=O)c1c[nH]c2ncc(-c3cccnc3)nc12` [compound 10, 10], 507 nM; with `CNC(=O)c1c[nH]c2ncc(-c3cccc(CN(C)C)c3)nc12` [compound 11, 11], 206 nM.
On the same count and under the same terms, with `CNC(=O)c1c[nH]c2ncc(-c3cccc(C(=O)NCCN(C)C)c3)nc12` [compound 12, 12] the figure was 62 nM.
For `CNC(=O)c1c[nH]c2ncc(-c3ccc(C(=O)NCCN(C)C)cc3)nc12` [compound 13, 13], the IC50 in data set [7] came out at 94 nM.
Regarding `CNC(=O)c1c[nH]c2ncc(-c3ccc(N4CCN(C)CC4)cc3)nc12` [compound 14, 14], the microsomal CLint in [3] (read-out: Cl (human)) is 9 µL/min/mg; in data set [6] it was 83 µL/min/mg. Also, the solubility in data set [5] was 260 µM. In [9], this compound had an IC50 greater than 30000 nM.
As to `CNC(=O)c1c[nH]c2ncc(-c3ccc(OCCN4CCOCC4)cc3)nc12` [compound 15, 15], in [6], the microsomal CLint stood at 11 µL/min/mg. Besides, in [7], the IC50 is 191 nM.
On the same counts, the results for `CNC(=O)c1c[nH]c2ncc(-c3ccc(OCCN4CCN(C)CC4)cc3)nc12` [compound 16, 16] are 18 µL/min/mg and 31 nM.
Turning to `CNC(=O)c1c[nH]c2ncc(-c3ccc(OCCN4CCN(C(C)=O)CC4)cc3)nc12` [compound 17, 17], the microsomal CLint in [6] worked out at 7 µL/min/mg. Also, the IC50 in [7] amounted to 80 nM.
In the case of `CNC(=O)c1c[nH]c2ncc(-c3ccc(OCCN4CCC(OC)CC4)cc3)nc12` [compound 18, 18], the solubility in data set [5] came to 504 µM.
As to `CNC(=O)c1c[nH]c2ncc(-c3ccc(OCCN4CCCC4)cc3)nc12` [compound 19, 19], the microsomal CLint in data set [6] is 37 µL/min/mg.
In the case of `CNC(=O)c1c[nH]c2ncc(-c3ccc(OCCN4CCCCC4)cc3)nc12` [compound 20, 20], the solubility in data set [5] amounted to 585 µM. For the same compound, in data set [6], the microsomal CLint was 12 µL/min/mg.
